PubChem BioAssay AID2060903 (Molecular Pharmacology Branch, DTP, NCI, 2025)
pIC50: −log10 of the molar value. Each block holds one molecule with its values, some of them ahead of it.

System: 377384-186-R-J1-PDC complex spheroid viability
Assay: Anticancer human tumor 377384-186-R-J1-PDC patient-derived pancreatic carcinoma cell line growth inhibition [RAS]
Settings: for pIC50: curve of first compound; for viability, T/C: stronger effect = lower value
In short: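 Agents were tested in combination matrices in half-log decrements from a top concentration at or near clinical Cmax (10 microM if undetermined). Targets were multi-cell spheroids of tumour lines plus HUVEC and MSC stromal cells.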

[1] = second compound 0.000949 µM, first compound 0.0316 µM
[2] = second compound 0.000949 µM, first compound 0.1 µM
[3] = second compound 0.000949 µM, first compound 0.316 µM
[4] = second compound 0.000949 µM, first compound 1 µM
[5] = second compound 0.000949 µM, first compound 3.16 µM
[6] = second compound 0.000949 µM, first compound 10 µM
[7] = second compound 0.003 µM, first compound 0.0316 µM
[8] = second compound 0.003 µM, first compound 0.1 µM
[9] = second compound 0.003 µM, first compound 0.316 µM
[10] = second compound 0.003 µM, first compound 1 µM
[11] = second compound 0.003 µM, first compound 3.16 µM
[12] = second compound 0.003 µM, first compound 10 µM
[13] = second compound 0.00949 µM, first compound 0.0316 µM
[14] = second compound 0.00949 µM, first compound 0.1 µM
[15] = second compound 0.00949 µM, first compound 0.316 µM
[16] = second compound 0.00949 µM, first compound 1 µM
[17] = second compound 0.00949 µM, first compound 3.16 µM
[18] = second compound 0.00949 µM, first compound 10 µM
[19] = second compound 0.03 µM, first compound 0.0316 µM
[20] = second compound 0.03 µM, first compound 0.1 µM
[21] = second compound 0.03 µM, first compound 0.316 µM
[22] = second compound 0.03 µM, first compound 1 µM
[23] = second compound 0.03 µM, first compound 3.16 µM
[24] = second compound 0.03 µM, first compound 10 µM
[25] = second compound 0.0949 µM, first compound 0.0316 µM
[26] = second compound 0.0949 µM, first compound 0.1 µM
[27] = second compound 0.0949 µM, first compound 0.316 µM
[28] = second compound 0.0949 µM, first compound 1 µM
[29] = second compound 0.0949 µM, first compound 3.16 µM
[30] = second compound 0.0949 µM, first compound 10 µM
[31] = second compound 0.3 µM, first compound 0.0316 µM
[32] = second compound 0.3 µM, first compound 0.1 µM
[33] = second compound 0.3 µM, first compound 0.316 µM
[34] = second compound 0.3 µM, first compound 1 µM
[35] = second compound 0.3 µM, first compound 3.16 µM
[36] = second compound 0.3 µM, first compound 10 µM
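Further: spheroids exposed to compounds for seven days before readout.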

pIC50 (second compound 0.000949 µM): > 7.50 | pIC50 (second compound 0.003 µM): > 7.50 | pIC50 (second compound 0.00949 µM): > 7.50 | pIC50 (second compound 0.03 µM): > 7.50 | pIC50 (second compound 0.0949 µM): > 7.50 | pIC50 (second compound 0.3 µM): > 7.50
Structure (SMILES): Cc1nc(N2CCC3(CC2)COC(C)C3N)c(CO)nc1Sc1ccnc(N)c1Cl (centres undefined) + CCn1c(-c2cc(N3CCN(C)CC3)cnc2C(C)OC)c2c3cc(ccc31)-c1csc(n1)CC(NC(=O)C1CC1C)C(=O)N1CCCC(N1)C(=O)OCC(C)(C)C2
viability, T/C [1]: 28.9% | viability, T/C [2]: 15.6% | viability, T/C [3]: 5.63% | viability, T/C [4]: 3.93% | viability, T/C [5]: 2.14% | viability, T/C [6]: 1.26% | viability, T/C [7]: 5.98% | viability, T/C [8]: 3.1% | viability, T/C [9]: 1.7% | viability, T/C [10]: 1.39% | viability, T/C [11]: 0.72% | viability, T/C [12]: 0.71% | viability, T/C [13]: 2.71% | viability, T/C [14]: 2.19% | viability, T/C [15]: 1.28% | viability, T/C [16]: 1.66% | viability, T/C [17]: 0.87% | viability, T/C [18]: 0.71% | viability, T/C [19]: 2.03% | viability, T/C [20]: 1.9% | viability, T/C [21]: 1.46% | viability, T/C [22]: 1.09% | viability, T/C [23]: 0.71% | viability, T/C [24]: 0.28% | viability, T/C [25]: 1.82% | viability, T/C [26]: 1.54% | viability, T/C [27]: 1.69% | viability, T/C [28]: 0.9% | viability, T/C [29]: 0.56% | viability, T/C [30]: 0.2% | viability, T/C [31]: 1.8% | viability, T/C [32]: 1.68% | viability, T/C [33]: 1.39% | viability, T/C [34]: 1.08% | viability, T/C [35]: 0.69% | viability, T/C [36]: 0.21%

pIC50 (second compound 0.000949 µM): > 7.50 | pIC50 (second compound 0.003 µM): > 7.50 | pIC50 (second compound 0.00949 µM): > 7.50 | pIC50 (second compound 0.03 µM): > 7.50 | pIC50 (second compound 0.0949 µM): > 7.50 | pIC50 (second compound 0.3 µM): > 7.50
Structure (SMILES): NC1c2ccccc2OC12CCN(c1cnc3c(N4CCCc5ncccc54)n[nH]c3n1)CC2 (centres undefined) + CCn1c(-c2cc(N3CCN(C)CC3)cnc2C(C)OC)c2c3cc(ccc31)-c1csc(n1)CC(NC(=O)C1CC1C)C(=O)N1CCCC(N1)C(=O)OCC(C)(C)C2
viability, T/C [1]: 5.69% | viability, T/C [2]: 3.23% | viability, T/C [3]: 1.88% | viability, T/C [4]: 1.71% | viability, T/C [5]: 1.35% | viability, T/C [6]: 0.78% | viability, T/C [7]: 2.74% | viability, T/C [8]: 1.37% | viability, T/C [9]: 1.06% | viability, T/C [10]: 0.67% | viability, T/C [11]: 0.28% | viability, T/C [12]: 0.2% | viability, T/C [13]: 1.78% | viability, T/C [14]: 1.22% | viability, T/C [15]: 0.77% | viability, T/C [16]: 0.41% | viability, T/C [17]: 1.43% | viability, T/C [18]: 0.08% | viability, T/C [19]: 2.14% | viability, T/C [20]: 1.39% | viability, T/C [21]: 1% | viability, T/C [22]: 0.36% | viability, T/C [23]: 0.18% | viability, T/C [24]: 0.1% | viability, T/C [25]: 1.61% | viability, T/C [26]: 1.57% | viability, T/C [27]: 0.67% | viability, T/C [28]: 0.17% | viability, T/C [29]: 0.13% | viability, T/C [30]: 0.29% | viability, T/C [31]: 1.41% | viability, T/C [32]: 1.04% | viability, T/C [33]: 0.5% | viability, T/C [34]: 0.27% | viability, T/C [35]: 0.14% | viability, T/C [36]: 0.1%
